Results published in US3972882A, “Sym.-triazine carbamates” (Toyama Chemical Co., Ltd., priority 1973, dated 1976).
Read-outs that look alike come from different tables or passages of the source.

Experiments:
[1] = system: acetic acid-induced writhing; assay: Analgesic activity by the acetic acid-induced writhing test (K. Takagi et al. method); format: in vivo, ddY male mice
Source text: Analgesic activity by the acetic acid-induced writhing test [According to the K. Takagi et al. method [Journal of the Pharmaceutical Society of Japan, 78 553 (1958)], a test compound suspended in the solution including 0.5 % of Tween-80 was orally administered to a group of 8 ddY male mice weighing 20 to 24 g.]

[2] = system: carregeenin oedema; assay: Anti-carregeenin oedema activity (Winter method); format: in vivo, male rats
Source text: Anti-carregeenin oedema activity [According to the Winter method [Proc. Soc. exp. Biol. Med., 111 544 (1962)], a test compound suspended in the solution including 0.3 % of Tween-80 (a trade name of Atlas Powder Co., U.S.A.) was orally administered to a group of 5 male rats weighing 120 to 140 g.]
*1 Maximum oedema inhibition.
*2 Average oedema inhibition from 2 hrs to 5 hrs after the administration

[3] = toxicity test (LD50); conditions: mouse, in vivo, mice
Source text: Therefore, the sym.-triazines of this invention are useful as an anti-inflammatory agent and analgesics.

[4] = Mus musculus, po, read-out: ED50

COC(=O)Nc1nc(OC)nc(OC)n1 [No. 1, methyl 2,4-dimethoxy-sym.-triazinylcarbamate]
Inhibition (writhing) ([1]; 100 mg/kg p.o.): 16.3%
Inhibition (writhing) ([1]; 300 mg/kg p.o.): 34.7%
ED50 [1, 4]: > 300 mg/kg
Inhibition of oedema, Peak (maximum oedema inhibition) ([2]; 70 mg/kg p.o.): 51.0%
Inhibition of oedema, time of Peak ([2]; 70 mg/kg p.o.): 2 h
Inhibition of oedema, Mean (average oedema inhibition from 2 hrs to 5 hrs after the administration) ([2]; 70 mg/kg p.o.): 44.6%
Inhibition of oedema, Peak (maximum oedema inhibition) ([2]; 200 mg/kg p.o.): 64.0%
Inhibition of oedema, time of Peak ([2]; 200 mg/kg p.o.): 2 h
Inhibition of oedema, Mean (average oedema inhibition from 2 hrs to 5 hrs after the administration) ([2]; 200 mg/kg p.o.): 49.5%
Inhibition of oedema, Peak (maximum oedema inhibition) ([2]; 500 mg/kg p.o.): 61.4%
Inhibition of oedema, time of Peak ([2]; 500 mg/kg p.o.): 2 h
Inhibition of oedema, Mean (average oedema inhibition from 2 hrs to 5 hrs after the administration) ([2]; 500 mg/kg p.o.): 52.8%

COC(=S)Nc1nc(OC)nc(OC)n1 [No. 3, methyl 2,4-dimethoxy-sym.-triazinylthioncarbamate]
Inhibition (writhing) ([1]; 3.7 mg/kg p.o.): 11.9%
Inhibition (writhing) ([1]; 11.1 mg/kg p.o.): 67.9%
Inhibition (writhing) ([1]; 33.3 mg/kg p.o.): 69.4%
Inhibition (writhing) ([1]; 100 mg/kg p.o.): 77.2%
ED50 [1, 4]: 8 mg/kg
LD50 ([3]; ip, read-out: LD50 i.p.): 500 mg/kg
LD50 ([3]; po, read-out: LD50 p.o.): 1050 mg/kg
Inhibition of oedema, Peak (maximum oedema inhibition) ([2]; 70 mg/kg p.o.): 37.2%
Inhibition of oedema, time of Peak ([2]; 70 mg/kg p.o.): 2 h
Inhibition of oedema, Mean (average oedema inhibition from 2 hrs to 5 hrs after the administration) ([2]; 70 mg/kg p.o.): 24.7%
Inhibition of oedema, Peak (maximum oedema inhibition) ([2]; 200 mg/kg p.o.): 68.8%
Inhibition of oedema, time of Peak ([2]; 200 mg/kg p.o.): 2 h
Inhibition of oedema, Mean (average oedema inhibition from 2 hrs to 5 hrs after the administration) ([2]; 200 mg/kg p.o.): 46.7%
Inhibition of oedema, Peak (maximum oedema inhibition) ([2]; 500 mg/kg p.o.): 78.3%
Inhibition of oedema, time of Peak ([2]; 500 mg/kg p.o.): 2 h
Inhibition of oedema, Mean (average oedema inhibition from 2 hrs to 5 hrs after the administration) ([2]; 500 mg/kg p.o.): 61.0%

CCOC(=S)Nc1nc(OC)nc(OC)n1 [compound 4]
Inhibition (writhing) ([1]; 3.7 mg/kg p.o.): 7.6%
Inhibition (writhing) ([1]; 11.1 mg/kg p.o.): 89.4%
Inhibition (writhing) ([1]; 33.3 mg/kg p.o.): 94.4%
Inhibition (writhing) ([1]; 100 mg/kg p.o.): 96.9%
ED50 [1, 4]: 6.6 mg/kg
LD50 ([3]; ip, read-out: LD50 i.p.): 490 mg/kg
LD50 ([3]; po, read-out: LD50 p.o.): 1020 mg/kg
Inhibition of oedema, Peak (maximum oedema inhibition) ([2]; 70 mg/kg p.o.): 23.9%
Inhibition of oedema, time of Peak ([2]; 70 mg/kg p.o.): 2 h
Inhibition of oedema, Mean (average oedema inhibition from 2 hrs to 5 hrs after the administration) ([2]; 70 mg/kg p.o.): 21.8%
Inhibition of oedema, Peak (maximum oedema inhibition) ([2]; 200 mg/kg p.o.): 45.9%
Inhibition of oedema, time of Peak ([2]; 200 mg/kg p.o.): 2 h
Inhibition of oedema, Mean (average oedema inhibition from 2 hrs to 5 hrs after the administration) ([2]; 200 mg/kg p.o.): 35.4%
Inhibition of oedema, Peak (maximum oedema inhibition) ([2]; 500 mg/kg p.o.): 64.5%
Inhibition of oedema, time of Peak ([2]; 500 mg/kg p.o.): 2 h
Inhibition of oedema, Mean (average oedema inhibition from 2 hrs to 5 hrs after the administration) ([2]; 500 mg/kg p.o.): 50.6%

CCOC(=S)Nc1nc(O)nc(O)n1 [compound 10]
Inhibition of oedema, Peak (maximum oedema inhibition) ([2]; 500 mg/kg p.o.): 13.0%
Inhibition of oedema, time of Peak ([2]; 500 mg/kg p.o.): 2 h

ethyl 2,4-dihydroxy-sym.-triazinylthioncarbamate [No. 10]
Inhibition of oedema, Peak (maximum oedema inhibition) ([2]; 500 mg/kg p.o.): 17.5%
Inhibition of oedema, time of Peak ([2]; 500 mg/kg p.o.): 2 h

ethyl 2,4-dimethoxy-sym.-triazinyldithiocarbamate [No. 7]
Inhibition (writhing) ([1]; 33.3 mg/kg p.o.): 16.5%
Inhibition (writhing) ([1]; 100 mg/kg p.o.): 68.4%
ED50 ([1]; p.o.): 67.5 mg/kg
Inhibition of oedema, Peak (maximum oedema inhibition) ([2]; 500 mg/kg p.o.): 38.0%
Inhibition of oedema, time of Peak ([2]; 500 mg/kg p.o.): 2 h
Inhibition of oedema, Mean (average oedema inhibition from 2 hrs to 5 hrs after the administration) ([2]; 500 mg/kg p.o.): 18.1%

ethyl 2,4-dimethoxy-sym.-triazinylthiolcarbamate [No. 11]
Inhibition (writhing) ([1]; 100 mg/kg p.o.): 2.9%
Inhibition (writhing) ([1]; 300 mg/kg p.o.): 50.3%
ED50 ([1]; p.o.): 300 mg/kg

methyl 2,4-diethoxy-sym.-triazinylthioncarbamate [No. 8]
Inhibition of oedema, Peak (maximum oedema inhibition) ([2]; 500 mg/kg p.o.): 16.3%
Inhibition of oedema, time of Peak ([2]; 500 mg/kg p.o.): 3 h

methyl 2,4-diphenoxy-sym.-triazinylthioncarbamate [No. 9]
Inhibition of oedema, Peak (maximum oedema inhibition) ([2]; 200 mg/kg p.o.): 27.1%
Inhibition of oedema, time of Peak ([2]; 200 mg/kg p.o.): 5 h
Inhibition of oedema, Mean (average oedema inhibition from 2 hrs to 5 hrs after the administration) ([2]; 200 mg/kg p.o.): 17.6%
Inhibition of oedema, time of Peak ([2]; 500 mg/kg p.o.): 2 h
Inhibition of oedema, Mean (average oedema inhibition from 2 hrs to 5 hrs after the administration) ([2]; 500 mg/kg p.o., listed as 7): 27.6%
Inhibition of oedema, Mean (average oedema inhibition from 2 hrs to 5 hrs after the administration) ([2]; 500 mg/kg p.o., listed as 8): 23.5%
Inhibition of oedema, Peak (maximum oedema inhibition) ([2]; 500 mg/kg p.o., listed as 7): 37.4%
Inhibition of oedema, Peak (maximum oedema inhibition) ([2]; 500 mg/kg p.o., listed as 8): 32.2%
